According to patent EP4596574A1, “GLP-1/GCG/GIP TRIPLE-RECEPTOR AGONIST AND USE THEREOF” (Sunshine Lake Pharma Co., Ltd., priority 2022, dated 2024):
Marks after values point to notes of the source that are not given here.

Key:
[1] = Glucose tolerance assessment in normal C57BL/6 mice (Example 4); assay type: in vivo; settings: 3 nmol/kg s.c. single dose, 24 h after administration
Description: (§1) Twelve hours after the single administration, the animals were fasted for 12 hours and had free access to water. Blood was collected from the tail vein to determine the basal blood glucose level of each group of animals, and then 2 g/kg glucose solution was injected intraperitoneally. Blood glucose was tested at 15, 30, 60, and 90 min after glucose administration. The blood glucose concentration-time curve was drawn according to the blood glucose values measured at different time points, and the AUC0~90min of each dose group was calculated as shown in Table 4 and Figure 1. Table 4: Effects of single administration of HEC-PT74, HEC-PT75, HEC-PT77, HEC-PT78, HEC-PT80, and HEC-PT82 on glucose tolerance in normal C57 mice 24 h after administration

[2] = Glucose tolerance assessment in normal C57BL/6 mice (Example 5); assay type: in vivo; settings: 3 nmol/kg s.c. single dose, 24 h after administration
Description: as §1, with “Table 5” for “Table 4”, “Figure 2.” for “Figure 1.”, “Table 5:” for “Table 4:”, “of HEC-PT86, HEC-PT96, HEC-PT112, HEC-PT113, HEC-PT114,” for “of HEC-PT74, HEC-PT75, HEC-PT77, HEC-PT78, HEC-PT80,”, “and HEC-PT119” for “and HEC-PT82”

[3] = In vivo efficacy evaluation in db/db mouse model (blood glucose); parameters: species or system db/db mice; settings: db/db mice
Description: Blood glucose was tested before each administration.

[4] = Long-term repeated administration in diet-induced obese C57BL/6 mice (DIO); assay type: in vivo, C57/BL6 mice
Excerpt: Experimental methods: C57/BL6 mice were randomly divided into a normal group (NFD) and a model group (HFD) at the fifth week of age. The normal group was fed with ordinary maintenance feed, while the other groups were fed with high-fat feed D12492. The body weight and food intake of mice were monitored every 3 weeks. After 16 weeks of feeding, the body weights of mice in the model group and the normal group were (49.0±2.3) g and (31.0±2.0) g, respectively, and the difference between the two groups was statistically significant. […] Body weight and food intake were measured before each administration. After 3 weeks of administration, an intraperitoneal glucose tolerance test was performed. The mice were slaughtered and samples were collected 72 h after the last administration. The liver weight was recorded, and the liver pathological conditions and blood biochemical indexes of each group were tested.

[5] = 15 min after 2 g/kg glucose i.p.
[6] = 30 min after 2 g/kg glucose i.p.
[7] = 60 min after 2 g/kg glucose i.p.
[8] = 90 min after 2 g/kg glucose i.p.
[9] = basal before 2 g/kg glucose i.p.
[10] = blood glucose AUC, 2 g/kg glucose i.p.
[11] = 10 nmol/kg s.c. once every 3 days, D7
[12] = 10 nmol/kg s.c. once every 3 days, D10
[13] = 10 nmol/kg s.c. once every 3 days, D13
[14] = 10 nmol/kg s.c. once every 3 days, D16
[15] = 10 nmol/kg s.c. once every 3 days, D19
[16] = 10 nmol/kg s.c. once every 3 days, D22
[17] = 10 nmol/kg s.c. once every 3 days, D25
[18] = 10 nmol/kg s.c. once every 3 days, D28
[19] = long-term administration 10 nmol/kg, 72 h after the last administration
[20] = long-term administration 10 nmol/kg, blood biochemical index

## CC[C@H](C)[C@H](NC(=O)[C@H](CC(C)C)NC(=O)[C@H](Cc1c[nH]c2ccccc12)NC(=O)[C@H](CCC(N)=O)NC(=O)[C@@H](NC(=O)[C@H](Cc1ccccc1)NC(=O)[C@H](C)NC(=O)[C@H](CCCCNC(=O)COCCOCCNC(=O)COCCOCCNC(=O)CC[C@H](NC(=O)CCCCCCCCCCCCCCCCCCC(=O)O)C(=O)O)NC(=O)[C@H](CCC(N)=O)NC(=O)[C@H](C)NC(=O)[C@@H](NC(=O)[C@H](CCCCN)NC(=O)[C@H](CC(=O)O)NC(=O)[C@H](CC(C)C)NC(=O)C(C)(C)NC(=O)[C@@H](NC(=O)[C@H](CO)NC(=O)[C@H](Cc1ccc(O)cc1)NC(=O)[C@H](CC(=O)O)NC(=O)[C@H](CO)NC(=O)[C@@H](NC(=O)[C@H](Cc1ccccc1)NC(=O)[C@@H](NC(=O)CNC(=O)[C@H](CCC(=O)O)NC(=O)C(C)(C)NC(=O)[C@@H](N)Cc1ccc(O)cc1)[C@@H](C)O)[C@@H](C)O)[C@@H](C)CC)[C@@H](C)CC)C(C)C)C(=O)N[C@@H](C)C(=O)NCC(=O)NCC(=O)N1CCC[C@H]1C(=O)N[C@@H](CO)C(=O)N[C@@H](CO)C(=O)NCC(=O)N[C@@H](C)C(=O)N1CCC[C@H]1C(=O)N1CCC[C@H]1C(=O)N1CCC[C@H]1C(=O)N[C@@H](CO)C(N)=O [LY3298176, tirzepatide, reference compound]
[1]; [5]
  Blood glucose level (mM) 15 min: 12.6 ± 3.5 mM
[1]; [6]
  Blood glucose level (mM) 30 min: 9.5 ± 3.3 mM
[1]; [7]
  Blood glucose level (mM) 60 min: 7.9 ± 1.4 mM
[1]; [8]
  Blood glucose level (mM) 90 min: 6.5 ± 1.3 mM
[1]; [9]
  Blood glucose level (mM) 0 min: 4.0 ± 0.8 mM
[1]; [10]
  AUC0-90 min: 768.2±171.6^a
[2]; [5]
  Blood glucose level (mM) 15 min: 13.6 ± 3.1 mM
[2]; [6]
  Blood glucose level (mM) 30 min: 9.9 ± 3.2 mM
[2]; [7]
  Blood glucose level (mM) 60 min: 6.9 ± 0.9 mM
[2]; [8]
  Blood glucose level (mM) 90 min: 7.2 ± 0.9 mM
[2]; [9]
  Blood glucose level (mM) 0 min: 4.9 ± 1.0 mM
[2]; [10]
  AUC0-90 min: 776.9±125.6^a
[3]; 10 nmol/kg s.c. once every three days, D0 (before first dose)
  Random blood glucose (mM) D0: 26.1 ± 3.8 mM
[3]; 10 nmol/kg s.c. once every three days, D3
  Random blood glucose (mM) D3: 22.4 ± 3.7 mM
[3]; 10 nmol/kg s.c. once every three days, D4
  Random blood glucose (mM) D4: 22.1 ± 4.0 mM
[3]; 10 nmol/kg s.c. once every three days, D5
  Random blood glucose (mM) D5: 24.2 ± 3.9 mM
[3]; 10 nmol/kg s.c. once every three days, D6
  Random blood glucose (mM) D6: 25.3 ± 4.0 mM
[3]; 10 nmol/kg s.c. once every three days, D7
  Random blood glucose (mM) D7: 23.5 ± 2.6 mM
[3]; 10 nmol/kg s.c. once every three days, D10
  Random blood glucose (mM) D10: 18.5 ± 5.1 mM
[3]; 10 nmol/kg s.c. once every three days, D13
  Random blood glucose (mM) D13: 20.1 ± 5.8 mM
[3]; 10 nmol/kg s.c. once every three days, D16
  Random blood glucose (mM) D16: 18.6 ± 4.0 mM
[3]; 10 nmol/kg s.c. once every three days, D19
  Random blood glucose (mM) D19: 18.7 ± 3.8 mM
[3]; 10 nmol/kg s.c. once every three days, D22
  Random blood glucose (mM) D22: 16.2 ± 4.6 mM
[3]; 10 nmol/kg s.c. once every three days, D25
  Random blood glucose (mM) D25: 16.6±3.7^a mM
[3]; 10 nmol/kg s.c., 6 h
  Random blood glucose (mM) 6 h: 16.8 ± 5.0 mM
[3]; 10 nmol/kg s.c., 24 h
  Random blood glucose (mM) 24 h: 13.0 ± 6.7 mM
[3]; 10 nmol/kg s.c., 48 h
  Random blood glucose (mM) 48 h: 19.9 ± 5.6 mM
[4]; [11]
  Cumulative food intake (g/pcs) D7: 10.2 g/pcs
  Weight gain rate (%) D7: -15.4±2.9%
[4]; [12]
  Cumulative food intake (g/pcs) D10: 13.0 g/pcs
  Weight gain rate (%) D10: -19.6±3.2%
[4]; [13]
  Cumulative food intake (g/each) D13: 16.6 g/each
  Weight gain rate (%) D13: -24.3±6.4%
[4]; [14]
  Cumulative food intake (g/each) D16: 22.1 g/each
  Weight gain rate (%) D16: -23.4±5.1%
[4]; [15]
  Cumulative food intake (g/each) D19: 27.9 g/each
  Weight gain rate (%) D19: -26.0±7.3%
[4]; [16]
  Cumulative food intake (g/each) D22: 34.2 g/each
  Weight gain rate (%) D22: -26.7±7.7%
[4]; [17]
  Cumulative food intake (g/each) D25: 40.6 g/each
  Weight gain rate (%) D25: -27.7±7.0%
[4]; [18]
  Cumulative food intake (g/each) D28: 48.1 g/each
  Weight gain rate (%) D28: -28.2±7.3%
[4]; 10 nmol/kg s.c. once every 3 days, D30
  Cumulative food intake (g/each) D30: 51.9^a g/each
[4]; 10 nmol/kg s.c. once every 3 days, D31
  Weight gain rate (%) D31: -28.0±6.8^a %
[4]; 10 nmol/kg s.c., D0
  Cumulative food intake (g/pcs) D0: 2.7 g/pcs
  Weight gain rate (%) D0: 0.0±0.0%
[4]; 10 nmol/kg s.c., D1
  Cumulative food intake (g/pcs) D1: 3.0 g/pcs
  Weight gain rate (%) D1: -6.4±0.9%
[4]; 10 nmol/kg s.c., D2
  Cumulative food intake (g/pcs) D2: 3.8 g/pcs
  Weight gain rate (%) D2: -8.9±1.3%
[4]; 10 nmol/kg s.c., D3
  Cumulative food intake (g/pcs) D3: 5.1 g/pcs
  Weight gain rate (%) D3: -8.7±1.9%
[4]; 10 nmol/kg s.c., D4
  Cumulative food intake (g/pcs) D4: 7.4 g/pcs
  Weight gain rate (%) D4: -7.7±2.1%
[4]; [19]
  Liver/g: 1.0±0.1^a g
  Weight/g: 32.6±3.9^a g
[4]; [20]
  ALT (U/L): 30.9±3.1^a U/L
  AST (U/L): 110.3±17.6^a U/L
  CHOL (mmol/L): 3.3±0.5^a mmol/L
  TRIGL (mmol/L): 0.6±0.1^a mmol/L
